Results from patent publication US12209079B2 (GENERAL INCORPORATED ASSOCIATION PHARMA VALLEY PROJECT …, priority 2017, dated 2025).
Counter-ions that a name gives are not always drawn.

How the values were obtained:
IDO in A431 cells = target: T1, IDO in A431 cells (Homo sapiens, UniProt P14902); assay: IDO cell-based assay, kynurenine production in IFN-γ stimulated A431 cells; conditions: A-431, 24 h; final concentration of the compound 10 μM; rate relative to culture without compound
T1 construct: endogenous in cells; host or cells: A431 cells, IFN-γ stimulated
In short: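 A431 cells were cultured 24 h, then preincubated 1 h with compound in medium containing 178 μM L-tryptophan, and stimulated with IFN-γ (diluted to 100 ng/mL before addition) for 24 h. Kynurenine was measured by p-dimethylbenzaldehyde absorbance at 460 nm, background-subtracted, and expressed as % production versus no-compound control.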

[1] = target: rhIDO (recombinant human IDO) (Homo sapiens, UniProt P14902); assay: Enzyme assay using rhIDO (rate of kynurenine production); type: biochemical; conditions: 2 h; final concentration of the compound 10 μM; rate relative to reaction without compound; read-out: rhIDO-mediated kynurenine production
In short: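 rhIDO preincubated with compound 10 min at 37 °C in phosphate buffer with ascorbate, methylene blue and catalase; started with 2 mM tryptophan solution (stock) and run 120 min at 37 °C. Stopped with TCA and heated to convert N-formylkynurenine; kynurenine read at 490 nm after p-dimethylbenzaldehyde, background-subtracted, as % of no-compound control.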

TDO in A172 cells = target: T2, TDO in A172 cells (Homo sapiens, UniProt P48775); assay: TDO cell-based assay, kynurenine production in A172 cells; conditions: A 172; final concentration of the compound 10 μM; rate relative to culture without compound
T2 construct: endogenous in cells; host or cells: A172 cells
In short: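 A172 cells were preincubated with compound for 1 h, then given L-tryptophan (final 524 μM) for 24 h at 37 °C. Kynurenine was read at 460 nm after p-dimethylbenzaldehyde/TCA reagent, background-subtracted, and expressed as % of no-compound production.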

[2] = target: rhTDO (recombinant human TDO) (Homo sapiens, UniProt P48775); assay: Enzyme assay using rhTDO (rate of kynurenine production); type: biochemical; conditions: 2 h; final concentration of the compound 10 μM; rate relative to reaction without compound; read-out: rhTDO-mediated kynurenine production
In short: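 Kynurenine output, as percent of untreated control after background subtraction, read at 490 nm with p-dimethylbenzaldehyde following TCA quench and 15 min heating at 50 °C. Reaction: rhTDO with compound, 10 min preincubation then 120 min at 37 °C, started by 20 mM tryptophan stock, in phosphate/ascorbate/methylene blue/catalase.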

T1 sequence (P14902 whole entry): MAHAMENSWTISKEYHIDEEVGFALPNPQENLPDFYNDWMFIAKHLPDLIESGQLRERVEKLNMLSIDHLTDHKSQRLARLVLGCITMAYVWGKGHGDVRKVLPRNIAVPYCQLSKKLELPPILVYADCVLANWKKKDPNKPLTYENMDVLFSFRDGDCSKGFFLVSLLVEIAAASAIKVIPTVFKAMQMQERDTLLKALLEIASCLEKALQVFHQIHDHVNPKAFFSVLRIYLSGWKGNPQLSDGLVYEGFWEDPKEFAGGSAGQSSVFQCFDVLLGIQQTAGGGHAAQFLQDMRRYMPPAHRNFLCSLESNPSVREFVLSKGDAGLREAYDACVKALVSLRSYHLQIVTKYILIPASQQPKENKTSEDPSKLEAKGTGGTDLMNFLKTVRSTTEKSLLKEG
Sequence of rhIDO (recombinant human IDO) (P14902 whole entry): as above
T2 sequence (P48775 whole entry): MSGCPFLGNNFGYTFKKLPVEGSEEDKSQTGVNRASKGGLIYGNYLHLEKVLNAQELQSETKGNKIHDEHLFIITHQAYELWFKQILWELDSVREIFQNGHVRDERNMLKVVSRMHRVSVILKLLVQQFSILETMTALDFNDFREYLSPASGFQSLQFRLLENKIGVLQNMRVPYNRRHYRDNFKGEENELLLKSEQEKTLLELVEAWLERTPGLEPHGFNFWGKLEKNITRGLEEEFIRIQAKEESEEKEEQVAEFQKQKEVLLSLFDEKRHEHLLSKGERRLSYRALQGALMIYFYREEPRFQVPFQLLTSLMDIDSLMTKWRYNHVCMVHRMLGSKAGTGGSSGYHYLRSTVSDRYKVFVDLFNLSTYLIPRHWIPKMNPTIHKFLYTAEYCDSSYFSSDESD
Sequence of rhTDO (recombinant human TDO) (P48775 whole entry): as above

| SMILES | remaining activity at 10 µM (IDO in A431 cells) | remaining activity at 10 µM [1] | remaining activity at 10 µM (TDO in A172 cells) | remaining activity at 10 µM [2] |
| --- | --- | --- | --- | --- |
| CNC(=O)c1ccc(C#N)cc1CS/C(N)=N/c1ccc(Br)cc1 [Compound 81, 5-Cyano-2-(methylcarbamoyl)benzyl (E)-N′-(4-bromophenyl)carbamimidothioate hydrobromide] | 78% | 81% | 89% | 121% |
| COc1ccc(CNC(=O)c2ccc(Br)cc2CSC(=N)N)cc1 [Compound 102, 5-Bromo-2-((4-methoxybenzyl)carbamoyl)benzyl carbamimidothioate hydrobromide] | 112% | 97% | 38% | 58% |
| COC(=O)c1ccccc1CSC(=N)N [Compound 55, Methyl 2-((carbamimidoylthio)methyl)benzoate hydrochloride] | 73% | 91% | 121% | 111% |
| c1ccc(CS/C(=N/C2CCCCC2)NC2CCCCC2)c(CS/C(=N/C2CCCCC2)NC2CCCCC2)c1 [Compound 58, 1,2-Phenylenebis(methylene) (E,E)-bis(N,N′-dicyclohexylcarbamimidothioate) dihydrobromide] | 1% | 73% | 9% | 83% |
| C/N=C(\NC)SCc1ccccc1CS/C(=N/C)NC [Compound 8, 1,2-phenylenebis(methylene) (E,E)-bis(N,N′-dimethylcarbamimidothioate) dihydrodhloride] | 10% | 77% | 20% | 52% |
| N/C(=N\c1ccc(F)cc1)SCc1cc(Cl)c(Cl)cc1CS/C(N)=N/c1ccc(F)cc1 [Compound 137, (4,5-Dichloro-1,2-phenylene)bis(methylene) (E,E)-bis(N′-(4-fluorophenyl)carbamimidothioate) dihydrobromide] | 8% | -3% | 2% | 9% |
| N=C(N)SCc1ccccc1CC(=O)NCCc1ccc(Cl)cc1 [Compound 68, 2-(2-((4-Chlorophenethyl)amino)-2-oxoethyl)benzyl carbamimidothioate hydrobromide] | 101% | 82% | 81% | 31% |
| CNC(=O)c1cccnc1CSC(=N)N [Compound 100, (3-(Methylcarbamoyl)pyridin-2-yl)methyl carbamimidothioate hydrobromide] | 93% | 88% | 123% | 84% |
| Fc1ccc(CN2CN=C(SCc3ccccc3CSC3=NCN(Cc4ccc(F)c(F)c4)CN3)NC2)cc1F [Compound 43, 1,2-Bis(((5-(3,4-difluorobenzyl)-1,4,5,6-tetrahydro-1,3,5-triazin-2-yl)thio)methyl)benzene] | 11% | 71% | -2% | 41% |
| N/C(=N\c1ccc(F)c(Cl)c1)SCc1ccccc1CS/C(N)=N/c1ccc(F)c(Cl)c1 [Compound 122, 1,2-Phenylenebis(methylene) (E,E)-bis(N-(3-chloro-4-fluorophenyl)carbamimidothioate) dihydrobromide] | 2% | -3% | 7% | 8% |
| Fc1ccc(CSC2=NCN(CCc3ccc(C(F)(F)F)cc3)CN2)c(CSC2=NCN(CCc3ccc(C(F)(F)F)cc3)CN2)c1 [Compound 140, 6,6′-(((4-Fluoro-1,2-phenylene)bis(methylene))bis(sulfanediyl))bis(3-(4-(trifluoromethyl)phenethyl)-1,2,3,4-tetrahydro-1,3,5-triazine)] | 15% | 34% | 9% | 16% |
| COc1ccc(CN2CN=C(SCc3ccccc3CSC3=NCN(Cc4ccc(OC)cc4OC)CN3)NC2)c(OC)c1 [Compound 27, 1,2-bis(((5-(2,4-dimethoxybenzyl)-1,4,5,6-tetrahydro-1,3,5-triazin-2-yl)thio)methyl)benzene] | 7% | 33% | -3% | 56% |
| Fc1ccc(CN2CN=C(SCc3cc(Cl)c(Cl)cc3CSC3=NCN(Cc4ccc(F)c(Cl)c4)CN3)NC2)cc1Cl [Compound 139, 6,6′-(((4,5-Dichloro-1,2-phenylene)bis(methylene))bis(sulfanediyl))bis(3-(3-chloro-4-fluorobenzyl)-1,2,3,4-tetrahydro-1,3,5-triazine)] | 8% | 24% | 11% | 14% |
| Brc1ccc(CSC2=NCN(CCC3CCCCC3)CN2)c(CSC2=NCN(CCC3CCCCC3)CN2)c1 [Compound 60, 6,6′-(((4-Bromo-1,2-phenylene)bis(methylene))bis(sulfanediyl))bis(3-(2-cyclohexylethyl)-1,2,3,4-tetrahydro-1,3,5-triazine)] | 1% | 6% | 4% | 6% |
| FC(F)(F)c1cccc(CCN2CN=C(SCc3cc(Cl)c(Cl)cc3CSC3=NCN(CCc4cccc(C(F)(F)F)c4)CN3)NC2)c1 [Compound 152, 6,6′-(((4,5-Dichloro-1,2-phenylene)bis(methylene))bis(sulfanediyl))bis(3-(3-(trifluoromethyl)phenethyl)-1,2,3,4-tetrahydro-1,3,5-triazine)] | 9% | 7% | 6% | 7% |
| CNC(=O)c1ncccc1CSC(=N)N [Compound 98, (2-(Methylcarbamoyl)pyridin-3-yl)methyl carbamimidothioate hydrobromide] | 107% | 95% | 133% | 91% |
| Cc1ccc(CNC(=O)c2ccc(Br)cc2CS/C(N)=N/c2ccc(F)c(Cl)c2)cc1 [Compound 91, 5-Bromo-2-((4-methylbenzyl)carbamoyl)benzyl (E)-N′-(3-chloro-4-fluorophenyl)carbamimidothioate hydrobromide] | 51% | 78% | 26% | 103% |
| N=C(N)SCc1ccccc1CC(=O)NCCc1ccc(Cl)c(Cl)c1 [Compound 70, 2-(2-((3,4-Dichlorophenethyl)amino)-2-oxoethyl)benzyl carbamimidothioate hydrobromide] | 98% | 72% | 96% | 35% |
| Brc1ccc(CSC2=NCN(CC3CC3)CN2)c(CSC2=NCN(CC3CC3)CN2)c1 [Compound 75, 6,6′-(((4-Bromo-1,2-phenylene)bis(methylene))bis(sulfanediyl))bis(3-(cyclopropylmethyl)-1,2,3,4-tetrahydro-1,3,5-triazine)] | 9% | 35% | 3% | 15% |
| Clc1ccc(CCN2CN=C(SCc3ccc(Br)cc3CSC3=NCN(CCc4ccc(Cl)c(Cl)c4)CN3)NC2)cc1Cl [Compound 39, 6,6′-(((4-Bromo-1,2-phenylene)bis(methylene))bis(sulfanediyl))bis(3-(3,4-dichlorophenethyl)-1,2,3,4-tetrahydro-1,3,5-triazine)] | 0% | 7% | 7% | 38% |
| O=C1CC(=O)NC(SCc2ccccc2CSC2=NC(=O)CC(=O)N2)=N1 [Compound 30, 2,2′-((1,2-phenylenebis(methylene))bis(sulfanediyl))bis(pyrimidine-4,6(1H,5H)-dione)] | 82% | 141% | 94% | 126% |
| N=C(N)SCc1cc(Br)ccc1C(=O)NCC1CCCCC1 [Compound 74, 5-Bromo-2-((cyclohexylmethyl)carbamoyl)benzyl carbamimidothioate hydrobromide] | 75% | 70% | 47% | 29% |
